According to the supplement of paper PMC10307832:

Key:
Assay in all cases: relative viability (nuclei count vs DMSO), 5 days (fraction); higher = more cells survive
4EGI-1 + Foretinib = compound: O=C(O)C(Cc1ccccc1[N+](=O)[O-])=NNc1nc(-c2ccc(Cl)c(Cl)c2)cs1 (mixture of isomers) [4EGI-1] + COc1cc2c(Oc3ccc(NC(=O)C4(C(=O)Nc5ccc(F)cc5)CC4)cc3F)ccnc2cc1OCCCN1CCOCC1 [Foretinib] (partner 0.25 µM)
Outline: (§1)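 Medians of duplicate plates are given as relative viability. That measure is the nuclei count in treated wells divided by the count in vehicle wells. Counts were taken on 4× images of lung cancer cell lines in 1536-well plates, 5 days after pin-tool dosing the day after seeding with one drug alone or a fixed anchor-drug dose plus five library-drug doses (not always all listed) in √10 steps.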

4EGI-1 + Pemetrexed = compound: O=C(O)C(Cc1ccccc1[N+](=O)[O-])=NNc1nc(-c2ccc(Cl)c(Cl)c2)cs1 (mixture of isomers) [4EGI-1] + Nc1nc2[nH]cc(CCc3ccc(C(=O)N[C@@H](CCC(=O)O)C(=O)O)cc3)c2c(=O)[nH]1 [Pemetrexed] (partner 0.2 µM)
Outline: as §1

XMD8-85 + Pemetrexed = compound: CN1CCN(CC1)C2=CC(=C(C=C2)NC3=NC=C4C(=N3)N(C5=CC=CC=C5C(=O)N4C)C)OC [XMD8-85] + Nc1nc2[nH]cc(CCc3ccc(C(=O)N[C@@H](CCC(=O)O)C(=O)O)cc3)c2c(=O)[nH]1 [Pemetrexed] (partner 0.2 µM)
Outline: as §1

4EGI-1 + Trametinib = compound: O=C(O)C(Cc1ccccc1[N+](=O)[O-])=NNc1nc(-c2ccc(Cl)c(Cl)c2)cs1 (mixture of isomers) [4EGI-1] + CC(=O)Nc1cccc(-n2c(=O)n(C3CC3)c(=O)c3c(Nc4ccc(I)cc4F)n(C)c(=O)c(C)c32)c1 [Trametinib] (partner 0.02 µM)
Outline: as §1

Row | Cell Line | relative viability (4EGI-1 + Foretinib; first compound 0.5 µM) | relative viability (4EGI-1 + Foretinib; first compound 1.581 µM) | relative viability (4EGI-1 + Foretinib; first compound 5 µM) | relative viability (4EGI-1 + Foretinib; first compound 15.81 µM) | relative viability (4EGI-1 + Foretinib; first compound 50 µM) | relative viability (4EGI-1 + Pemetrexed; first compound 0.5 µM) | relative viability (4EGI-1 + Pemetrexed; first compound 1.581 µM) | relative viability (4EGI-1 + Pemetrexed; first compound 5 µM) | relative viability (4EGI-1 + Pemetrexed; first compound 15.81 µM) | relative viability (4EGI-1 + Pemetrexed; first compound 50 µM) | relative viability (XMD8-85 + Pemetrexed; first compound 0.08 µM) | relative viability (XMD8-85 + Pemetrexed; first compound 0.253 µM) | relative viability (XMD8-85 + Pemetrexed; first compound 0.8 µM) | relative viability (XMD8-85 + Pemetrexed; first compound 2.53 µM) | relative viability (XMD8-85 + Pemetrexed; first compound 8 µM) | relative viability (4EGI-1 + Trametinib; first compound 0.5 µM) | relative viability (4EGI-1 + Trametinib; first compound 1.581 µM) | relative viability (4EGI-1 + Trametinib; first compound 5 µM) | relative viability (4EGI-1 + Trametinib; first compound 15.81 µM) | relative viability (4EGI-1 + Trametinib; first compound 50 µM)
1 | NCI-H2126 | 1.34 | 1.55 | 1.28 | 1.07 | 0.785 | 0.793 | 0.712 | 0.681 | 0.596 | 0.537 | 0.705 | 0.758 | 0.693 | 0.707 | 0.623 | 0.552 | 0.553 | 0.506 | 0.463 | 0.384
2 | NCI-H2170 | 0.951 | 0.958 | 0.74 | 1.01 | 0.582 | 0.259 | 0.256 | 0.247 | 0.256 | 0.265 | 0.258 | 0.28 | 0.264 | 0.269 | 0.286 | 0.956 | 0.773 | 0.876 | 0.866 | 0.645
3 | NCI-H2228 | 0.906 | 0.878 | 0.938 | 0.882 | 0.166 | 0.377 | 0.472 | 0.367 | 0.338 | 0.164 | 0.334 | 0.319 | 0.343 | 0.398 | 0.237 | 0.496 | 0.499 | 0.575 | 0.456 | 0.197
4 | NCI-H2342 | 1.15 | 1.06 | 1.2 | 1.05 | 0.831 | 0.884 | 0.723 | 0.813 | 0.978 | 0.702 | 0.808 | 0.805 | 0.891 | 0.828 | 0.775 | 0.894 | 0.802 | 0.881 | 0.98 | 0.906
5 | NCI-H2347 | 0.989 | 0.835 | 1.11 | 0.806 | 0.933 | 0.438 | 0.407 | 0.452 | 0.414 | 0.413 | 0.393 | 0.529 | 0.427 | 0.406 | 0.431 | 0.304 | 0.27 | 0.309 | 0.298 | 0.302
6 | NCI-H2405 | 1.06 | 1 | 1.13 | 1.13 | 1.02 | 1.1 |  | 1.3 | 1.05 | 0.285 | 1.12 | 1.05 | 1.04 | 1.01 | 0.602 | 0.856 |  | 0.703 | 0.771 | 0.482
7 | NCI-H3122 | 0.897 | 0.897 | 0.927 | 0.986 | 0.684 | 0.196 | 0.192 | 0.189 | 0.224 | 0.175 | 0.178 | 0.201 | 0.203 | 0.213 | 0.172 | 0.235 | 0.246 | 0.233 | 0.232 | 0.305
8 | PC-3 [JPC-3] | 1.09 | 0.984 | 0.967 |  | 0.463 | 1.09 |  | 1.21 | 0.491 | 0.333 | 1.21 | 0.928 | 1.1 | 1.27 | 0.452 | 0.82 |  | 0.621 | 0.399 | 0.47
9 | PC-14 | 1.01 | 0.799 | 1.09 |  | 0.879 | 0.135 |  | 0.159 | 0.185 | 0.0861 | 0.114 | 0.144 | 0.126 | 0.116 | 0.101 | 1.01 |  | 0.786 | 0.561 | 0.0572
10 | RERF-LC-KJ | 0.883 | 0.77 | 0.857 | 0.695 | 0.734 | 0.51 | 0.351 | 0.444 | 0.457 | 0.431 | 0.46 | 0.478 | 0.484 | 0.497 | 0.43 | 0.887 | 0.679 | 0.851 | 0.726 | 0.516
11 | SK-LU-1 | 0.956 | 0.829 | 0.841 | 0.746 | 0.284 | 0.932 | 1.02 | 0.992 | 1.06 | 0.319 | 0.973 | 0.916 | 0.966 | 1.1 | 0.851 | 0.5 | 0.527 | 0.538 | 0.474 | 0.326
12 | SK-MES-1 | 1.04 | 0.955 | 1.03 | 0.521 | 0.824 | 0.979 | 0.713 | 0.968 | 0.751 | 0.24 | 0.857 | 1.08 | 1 | 0.9 | 0.44 | 0.582 | 0.559 | 0.568 | 0.541 | 0.418
13 | SW 900 | 0.935 |  | 0.908 | 0.677 | 0.546 | 0.496 | 0.513 | 0.485 | 0.405 | 0.136 | 0.46 | 0.505 | 0.506 | 0.477 | 0.282 | 1.11 | 0.8 | 0.773 | 0.584 | 0.173
14 | SW 1573 | 1.13 | 0.954 | 1.13 | 0.878 | 0.52 | 0.963 | 0.742 | 0.794 | 0.329 | 0.126 | 0.831 | 0.813 | 1.06 | 0.895 | 0.461 | 0.59 | 0.476 | 0.526 | 0.514 | 0.251
15 | UMC-11 | 1.1 | 1.09 | 1.12 | 1.09 | 0.39 | 0.841 | 0.792 | 0.863 | 0.805 | 0.52 | 0.818 | 0.745 | 0.82 | 0.707 | 0.391 | 0.984 | 0.71 | 0.771 | 0.873 | 0.493
